The source of these data is patent US6602888B2, “Use of α1C specific compounds to treat benign prostatic hyperplasia” (Synaptic Pharmaceutical Corporation, priority 1992, dated 2003).

Structures can show the parent of a compound that is named as a salt. Where two headings read alike, the source gives them in different places.

Series [1] addresses T1, human histamine H1 receptor (Homo sapiens, UniProt P35367).
T1 construct: host or cells: COS-7, transient, DEAE-dextran
Put plainly: [3H]mepyramine binding, histamine H1 receptor. The source says:
The coding sequence of the human histamine H1 receptor, homologous to the bovine H1 receptor, was obtained from a human hippocampal cDNA library, and was cloned into the eukaryotic expression vector pCEXV-3. The plasmid DNA for the H1 receptor is designated pcEXV-H1, and was deposited on Nov. […] This construct was transfected into COS-7 cells by the DEAE-dextran method.

The target in series [2] is T2, human histamine H2 receptor (Homo sapiens, UniProt P25021).
T2 construct: host or cells: COS-7, transient, DEAE-dextran
Put plainly: [3H]tiotidine binding, histamine H2 receptor. As to conditions: Table 2, cloned human receptor; read-out: Histamine H2 (pK1) (converted). The source says: The coding sequence of the human H2 receptor was obtained from a human placenta genomic library, and cloned into the cloning site of PCEXV-3 eukaryotic expression vector. The plasmid DNA for the H2 receptor is designated pcEXV-H2, and was deposited on Nov. […] This construct was transfected into COS-7 cells by the DEAE-dextran method.

Series [3] has as its target T3, human 5HT1Dα receptor (Homo sapiens, UniProt P28221).
T3 construct: host or cells: LM(tk-) clonal cell line Ltk-8-30-84
Put plainly: [3H]serotonin competition binding, 5HT1Dα receptor. On the procedure: (§1) 5HT1Dα, 5HT1Dβ, 5HT1E, 5HT1F Receptors: The cell lysates of LM(tk−) clonal cell line stably transfected with the genes encoding each of these 5HT receptor-subtypes were prepared as described above. The cell line for the 5HT1Dα receptor, designated as Ltk-8-30-84, was deposited on Apr. […] The cell for the 5HT1Dβ receptor, designated as Ltk-11, was deposited on Apr. […] The cell line for the 5HT1E receptor, designated 5 HT1E-7, was deposited on Nov. […] The cell line for the 5HT1F receptor, designated L-5-HT1F, was deposited on Dec. […] These preparations were suspended in 50 mM Tris-HCl buffer (pH 7.4 at 37° C.) containing 10 mM MgCl2, 0.2 mM EDTA, 10 μM pargyline, and 0.1% ascorbate.

In series [4] the target is T4, human 5HT1Dβ receptor (Homo sapiens, UniProt P28222).
T4 construct: host or cells: LM(tk-) clonal cell line Ltk-11
The series can be described thus: [3H]serotonin competition binding, 5HT1Dβ receptor. On the procedure:
as §1

For series [5], the target named is T5, human 5HT1E receptor (Homo sapiens, UniProt P28566).
T5 construct: host or cells: LM(tk-) clonal cell line 5HT1E-7
Put plainly: [3H]serotonin competition binding, 5HT1E receptor. On the procedure:
as §1

For series [6], the target named is T6, human 5HT1F receptor (Homo sapiens, UniProt P30939).
T6 construct: host or cells: LM(tk-) clonal cell line L-5-HT1F
T6 sequence (P30939 1-366): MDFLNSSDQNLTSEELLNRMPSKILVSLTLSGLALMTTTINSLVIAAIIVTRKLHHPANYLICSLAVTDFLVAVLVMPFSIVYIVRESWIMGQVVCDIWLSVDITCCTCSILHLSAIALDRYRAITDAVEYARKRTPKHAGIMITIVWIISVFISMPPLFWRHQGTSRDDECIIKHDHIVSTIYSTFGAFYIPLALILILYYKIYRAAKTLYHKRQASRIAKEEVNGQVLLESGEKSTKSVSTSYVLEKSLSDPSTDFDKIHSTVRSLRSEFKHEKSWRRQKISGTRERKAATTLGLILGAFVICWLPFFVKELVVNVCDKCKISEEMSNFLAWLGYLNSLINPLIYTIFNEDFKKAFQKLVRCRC
Put plainly: [3H]serotonin competition binding, 5HT1F receptor. On the procedure: as §1

In series [7] the target is T7, human 5HT2 receptor (Homo sapiens, UniProt P28223).
T7 construct: host or cells: COS-7 (DEAE-dextran); the same paragraph also names a deposited line L-NGC-5HT2
Put plainly: [3H]ketanserin competition binding, 5HT2 receptor. On the procedure: The coding sequence of the human 5HT2 receptor was obtained from a human brain cortex cDNA library, and cloned into the cloning site of pCEXV-3 eukaryotic expression vector. This construct was transfected into COS-7 cells by the DEAE-dextran method. […] Nonspecific binding was defined by the addition of 10 μM mianserin.

Series [8] has as its target T8, human D2 receptor (Homo sapiens, UniProt P14416).
T8 construct: host or cells: COS-7, transient, DEAE-dextran
The series can be described thus: [3H]spiperone binding, dopamine D2 receptor. On the procedure: The potency of α1 antagonists at the D2 receptor was determined using membrane preparations from COS-7 cells transfected with the gene encoding the human D2 receptor. The coding region for the human D2 receptor was obtained from a human striatum cDNA library, and cloned into the cloning site of PCDNA 1 eukariotic expression vector. The plasmid DNA for the D2 receptor is designated pcEXV-D2, and was deposited on Nov. […] This construct was transfected into COS-7 cells by the DEAE-dextran method. […] The cell lysates were incubated with [3H]spiperone (2 nM), using 10 μM (+)Butaclamol to determine nonspecific binding.

Series [9] has as its system human prostate tissue. Put plainly: Antagonism of phenylephrine-induced contraction of human prostatic tissue. The settings on record: pA2, phenylephrine-induced contraction, dose-ratio method.
Experimental: An index of this efficacy can be obtained by determining the potency of α1 antagonists to antagonize the contraction of human prostatic tissue induced by an α1 agonist “in vitro”.
Prostatic adenomas were obtained at the time of surgery from patients with symptomatic BPH. […] Isometric tension was measured with a Grass Instrument FT03 force transducer interfaced with a computer. Tissue strips were contracted with varying concentrations of phenylephrine after incubating for 20 minutes in the absence and presence of at least three different concentrations of antagonist. Dose-response curves for phenylephrine were constructed, and the antagonist potency (pA2) was estimated by the dose-ratio method.
For series [10], the target named is T9, calcium channels (Rattus norvegicus, UniProt P22002).
T9 construct: from tissue; host or cells: rat cardiac muscle membranes
Put plainly: [3H]nitrendipine competition binding, calcium channels, rat cardiac muscle membranes. The settings on record: Table 2, rat cardiac muscle membranes; read-out: Calcium Channel (pK1) (converted). On the procedure: Briefly, the tissue was minced and homogenized in 50 mM Tris-HCl (pH 7.4) containing 0.1 mM phenylmethylsulfonyl fluoride. The homogenates were centrifuged at 1000 g for 15 minutes, the resulting supernatant was centrifuged at 45,000 g for 15 minutes. The 45,000 g pellet was suspended in buffer and centrifuged a second time.

Series [11] concerns Sprague-Dawley normotensive rats. Put plainly: Rat orthostatic hypotension model. In kind it is in vivo. As to conditions: for BP fall / orthostatic fall in BP: i.v.; for orthostatic fall in BP: second tilt. On the procedure:
Adult male Sprague-Dawley normotensive rats were anesthetized with sodium pentobarbital (45 mg/kg, i.v.). The femoral vein and artery of the right hindlimb were cannulated for drug administration and blood pressure monitoring, respectively. Heart rate was determined by a cardiotachometer triggered by the blood pressure pulse. The rats were secured in the supine position to a board that could be tilted 90 degrees. When blood pressure and heart rate had stabilized, the rats were subjected to a 90 degree vertical (head up) tilt for 60 seconds. Changes in blood pressure and heart rate from pre-tilt levels were monitored continuously. The rats were returned to the supine position and blood pressure and heart rate were allowed to stabilize. […] When blood pressure had stabilized, the rats were subjected to a second tilt and blood pressure and heart rate were recorded as described above. […] Data from the second tilt are used in statistical analysis.

Series [12] has as its system 5-α-reductase. The settings on record: BPH patients; cited from earlier work.

T8 sequence (P14416 whole entry): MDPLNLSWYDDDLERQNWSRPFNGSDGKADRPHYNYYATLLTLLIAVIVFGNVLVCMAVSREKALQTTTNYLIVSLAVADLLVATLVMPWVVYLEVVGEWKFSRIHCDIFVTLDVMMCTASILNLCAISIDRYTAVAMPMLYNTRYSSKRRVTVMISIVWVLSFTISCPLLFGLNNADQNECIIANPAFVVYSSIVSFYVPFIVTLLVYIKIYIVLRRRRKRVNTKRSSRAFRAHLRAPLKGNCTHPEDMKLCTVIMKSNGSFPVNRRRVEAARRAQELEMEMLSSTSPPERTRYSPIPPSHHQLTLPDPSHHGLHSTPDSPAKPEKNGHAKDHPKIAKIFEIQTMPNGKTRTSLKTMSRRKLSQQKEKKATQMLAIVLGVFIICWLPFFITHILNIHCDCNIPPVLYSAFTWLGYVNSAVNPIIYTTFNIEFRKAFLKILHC
T2 sequence (P25021 whole entry): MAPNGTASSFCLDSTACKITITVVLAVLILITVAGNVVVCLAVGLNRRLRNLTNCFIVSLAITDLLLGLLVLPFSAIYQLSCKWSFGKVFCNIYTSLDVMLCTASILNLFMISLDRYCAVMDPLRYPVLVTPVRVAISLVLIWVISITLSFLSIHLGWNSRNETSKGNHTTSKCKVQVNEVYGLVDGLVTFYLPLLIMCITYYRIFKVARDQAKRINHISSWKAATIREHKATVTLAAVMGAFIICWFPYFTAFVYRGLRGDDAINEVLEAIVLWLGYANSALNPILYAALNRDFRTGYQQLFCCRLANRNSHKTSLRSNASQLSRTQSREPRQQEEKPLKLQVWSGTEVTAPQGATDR
T4 sequence (P28222 whole entry): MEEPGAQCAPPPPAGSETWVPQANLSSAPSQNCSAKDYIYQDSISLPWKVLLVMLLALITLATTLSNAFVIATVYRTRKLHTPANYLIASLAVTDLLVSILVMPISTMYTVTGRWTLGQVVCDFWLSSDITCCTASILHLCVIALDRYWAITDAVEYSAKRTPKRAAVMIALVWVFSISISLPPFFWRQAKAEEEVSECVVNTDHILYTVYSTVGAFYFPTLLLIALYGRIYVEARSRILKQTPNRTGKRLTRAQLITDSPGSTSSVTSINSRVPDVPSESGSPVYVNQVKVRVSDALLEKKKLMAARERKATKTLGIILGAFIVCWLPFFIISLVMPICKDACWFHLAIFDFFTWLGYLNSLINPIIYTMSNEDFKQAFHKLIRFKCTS
T1 sequence (P35367 whole entry): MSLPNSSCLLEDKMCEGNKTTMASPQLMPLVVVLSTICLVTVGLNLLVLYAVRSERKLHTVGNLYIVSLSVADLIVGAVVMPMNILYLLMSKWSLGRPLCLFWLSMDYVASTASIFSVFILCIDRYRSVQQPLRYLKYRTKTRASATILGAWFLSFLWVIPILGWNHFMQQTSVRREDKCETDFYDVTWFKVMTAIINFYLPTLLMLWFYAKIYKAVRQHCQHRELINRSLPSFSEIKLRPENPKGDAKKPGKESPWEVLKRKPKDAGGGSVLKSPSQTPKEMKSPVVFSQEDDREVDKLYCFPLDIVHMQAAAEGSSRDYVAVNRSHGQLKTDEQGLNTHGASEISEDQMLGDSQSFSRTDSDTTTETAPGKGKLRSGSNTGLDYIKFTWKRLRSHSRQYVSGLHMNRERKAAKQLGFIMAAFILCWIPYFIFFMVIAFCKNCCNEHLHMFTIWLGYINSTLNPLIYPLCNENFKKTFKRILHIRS
T3 sequence (P28221 whole entry): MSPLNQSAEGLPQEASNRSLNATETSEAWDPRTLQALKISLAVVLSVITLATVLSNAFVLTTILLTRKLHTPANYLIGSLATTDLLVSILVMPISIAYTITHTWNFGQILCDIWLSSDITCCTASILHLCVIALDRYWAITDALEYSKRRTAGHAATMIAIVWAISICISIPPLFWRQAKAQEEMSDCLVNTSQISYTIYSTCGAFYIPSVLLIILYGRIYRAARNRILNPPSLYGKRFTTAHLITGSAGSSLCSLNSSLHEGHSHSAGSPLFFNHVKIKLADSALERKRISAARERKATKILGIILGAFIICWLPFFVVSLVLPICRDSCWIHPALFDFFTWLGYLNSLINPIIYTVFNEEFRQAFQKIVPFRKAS
T7 sequence (P28223 whole entry): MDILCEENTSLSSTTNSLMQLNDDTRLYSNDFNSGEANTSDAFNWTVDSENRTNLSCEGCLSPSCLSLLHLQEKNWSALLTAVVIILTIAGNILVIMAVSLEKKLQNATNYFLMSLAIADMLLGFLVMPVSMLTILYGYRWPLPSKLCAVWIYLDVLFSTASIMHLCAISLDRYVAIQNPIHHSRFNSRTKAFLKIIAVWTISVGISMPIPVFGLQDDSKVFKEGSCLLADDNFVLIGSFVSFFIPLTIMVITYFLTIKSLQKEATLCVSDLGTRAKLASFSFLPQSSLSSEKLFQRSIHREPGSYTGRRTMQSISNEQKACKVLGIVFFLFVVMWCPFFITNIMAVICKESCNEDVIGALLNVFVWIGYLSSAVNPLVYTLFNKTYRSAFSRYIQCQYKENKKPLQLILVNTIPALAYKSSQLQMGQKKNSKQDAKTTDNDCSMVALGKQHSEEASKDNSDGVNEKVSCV
T5 sequence (P28566 whole entry): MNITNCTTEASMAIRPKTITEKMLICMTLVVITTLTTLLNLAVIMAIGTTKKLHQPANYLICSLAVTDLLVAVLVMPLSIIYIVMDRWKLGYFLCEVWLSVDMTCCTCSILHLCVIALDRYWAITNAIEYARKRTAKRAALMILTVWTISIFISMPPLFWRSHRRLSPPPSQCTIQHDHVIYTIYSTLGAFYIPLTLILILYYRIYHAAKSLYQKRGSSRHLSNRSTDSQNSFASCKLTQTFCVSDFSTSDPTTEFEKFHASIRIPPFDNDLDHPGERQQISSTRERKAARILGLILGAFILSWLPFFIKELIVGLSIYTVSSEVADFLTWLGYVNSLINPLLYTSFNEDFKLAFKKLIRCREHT

As a reminder, the melting point is the temperature of the solid-liquid transition. `O=C(CCCN1CCC(NC(=O)c2ccccc2)CC1)c1ccc(Cl)cc1` (as salt: HCl) [Example 4, 1-[3-(4-chlorobenzoyl)propyl]-4-benzamidopiperidine]: the melting point was in the range of 243 to 244 °C.

Turning to `COC(=O)C1=C(C)NC(C)=C(C(=O)NCCCN2CCC(c3ccccc3)(c3ccccc3)CC2)C1c1ccc([N+](=O)[O-])cc1.Cl.O` (stereo not drawn) [Compound 2, 2,6-Dimethyl-4-(4-nitrophenyl)-1,4-dihydropyridine-3,5-dicarboxylic acid N-[3-(4,4-diphenylpiperidin-1-yl)-propyl]amide methyl ester hydrochloride hydrate], the Ki was 69.2 nM in series [1]; 0.0331 µM in series [2]; above 100 nM in series [3]; above 1000 nM in series [4]; above 10 µM in series [5]; above 10 µM in series [6]. Also, the values for the Ki in series [7] and in [8] were above 1000 nM and above 0.1 µM, respectively. For the same molecule, the “Human Prostate (pA)” value in [9] is 8.94.

On to `COc1cc2nc(N3CCN(C(=O)c4ccco4)CC3)nc(N)c2cc1OC` [Prazosin], for which, in series [10], the Ki is 26.9 µM. In addition, the BP fall entry is “+” in [11] (Dose 1, 10 ug/kg); “++” in [11] (Dose 2, 100 ug/kg); “+++” in series [11] (Dose 3, 1000 ug/kg). The “orthostatic fall in BP” value in [11] (Dose 1, 10 ug/kg) is on record as “+”; in series [11] (Dose 2, 100 ug/kg), “++ or +++”; in series [11] (Dose 3, 1000 ug/kg), “++ or +++”. Moreover, the “orthostasis (Table 3)” value in series [11] (doses 10, 100, 1000 ug/kg) is recorded as “consistently cause orthostasis at the lowest dose”. In addition, in series [9], the “Human Prostate (pA)” value is 9.08.

For the molecule `CC(C)(C)NC(=O)[C@H]1CC[C@H]2[C@@H]3CC[C@H]4NC(=O)C=C[C@]4(C)[C@H]3CC[C@]12C` [Proscar], in series [12], the “patients in whom effective” value is given as 30% and the “period required to show results” value was “up to 6 months”.

For `COc1cc2nc(N3CCN(C(=O)C4CCCO4)CC3)nc(N)c2cc1OC` (stereo not drawn) [Terazosin, 2 [4-(Tetrahydro-2-furoyl)piperazinyl]-4-amino-6,7-dimethoxyquinazoline hydrochloride, reference compound], the Ki in [2] was 9.12 µM; in series [8] (Table 2, cloned human receptor, read-out: Dopamine D2 (pK1)) it was above 10 µM. Moreover, the “Human Prostate (pA)” value in series [9] worked out at 7.30.
